How the values were obtained:
[1] = Stability of analytes in rat plasma (QC samples under four storage conditions); assay type: in vitro ADME; conditions: n = 6
Experimental: To study the stability of all compounds in rat plasma, low, medium, and high concentrations of QC samples were tested under the following test conditions: stored at an autosampler for 12 hours, stored at room temperature for 6 hours, put through three freeze/thaw cycles, and stored at -80°C for 14 days. Three QC concentrations were tested for each of the above conditions.
The stability of all 13 analytes during sample collection and processing was evaluated with the various storage conditions being tested on spiked plasma samples at three QC concentrations.

[2] = Pharmacokinetic study in rat plasma after oral administration of Flos Chrysanthemi extract (UPLC-MS/MS); assay type: in vivo, Sprague-Dawley rats; conditions: rats, oral Flos Chrysanthemi extract 10 g/kg; for AUC(0-inf) / Cmax / Tmax / half-life / AUC / k el: male, Sprague-Dawley, rat, plasma, n = 6; for AUC: read-out: AUC(0 − tn); for k el: read-out: Ke (converted); for Detection in plasma over the sampling time: result in words
Experimental: Six male Sprague-Dawley rats (250 ± 5 g) were purchased from Huafukang Bioscience Co., Inc. (Beijing, China). The rats were adapted to the facility for a week. Before the experiments, rats were fasted for 12 h, although drinking water was readily accessible. Flos Chrysanthemi extract was dissolved in CMC-Na aqueous solution and orally administered to the animals once at 10 g/kg. Blood samples (220 μL) were taken from the orbital venous plexus of rats at 0, 0.03, 0.08, 0.17, 0.25, 0.5, 1, 2, 4, 6, 8, 10, 12, and 24 h after extract administration. Blood samples were promptly centrifuged at 6000 rpm for 10 min, and plasma samples were collected. The obtained plasma was stored at -80°C until analysis. “Drug and Statistics 3.0” software (Medical College of Wannan, China) was used to calculate pharmacokinetic parameters. The animal protocol was approved by the Animal Ethics Committee of Tianjin University of Traditional Chinese Medicine (TCM-LAEC20190056).
Plasma samples from rats orally administered with Flos Chrysanthemi extract (10.0 g/kg) were analysed with UPLC-MS/MS. Plasma concentration-time curves are shown in Figure 3, and the primary pharmacokinetic parameters of each analyte are summarized in Table 6.

[3] = spiked concentration 2000 ng/mL
[4] = spiked concentration 4000 ng/mL
[5] = spiked concentration 1000 ng/mL

Compound	Measured concentration, -80°C for 14 days ([1]; spiked concentration 10 ng/mL) [ng/mL]	Measured concentration, Autosampler for 12 h ([1]; spiked concentration 10 ng/mL) [ng/mL]	Measured concentration, Room temperature for 6 h ([1]; spiked concentration 10 ng/mL) [ng/mL]	Measured concentration, Three freeze-thaw cycles ([1]; spiked concentration 10 ng/mL) [ng/mL]	AUC(0-inf) [2] [ng·h/mL]	Cmax [2] [ng/mL]	Tmax [2] [h]	half-life [2] [h]	AUC [2] [ng·h/mL]	k el [2] [s⁻¹]	Measured concentration, -80°C for 14 days ([1]; spiked concentration 200 ng/mL) [ng/mL]	Measured concentration, Autosampler for 12 h ([1]; spiked concentration 200 ng/mL) [ng/mL]	Measured concentration, Room temperature for 6 h ([1]; spiked concentration 200 ng/mL) [ng/mL]	Measured concentration, Three freeze-thaw cycles ([1]; spiked concentration 200 ng/mL) [ng/mL]	Detection in plasma over the sampling time [2]	further results
O=C(O)[C@H]1O[C@@H](Oc2cc(O)c3c(=O)cc(-c4ccc(O)c(O)c4)oc3c2)[C@H](O)[C@@H](O)[C@@H]1O [Luteolin 7-O-glucuronide]	8.8 ± 0.2	9.6 ± 0.3	10.9 ± 0.8	11.1 ± 0.1	6730 ± 2280	749 ± 195	0.5 ± 0.27	6.17 ± 1.43	6450 ± 1810	3.33e-05						Measured concentration, -80°C for 14 days ([1]; spiked concentration 100 ng/mL): 99.7 ± 0.3 ng/mL; Measured concentration, Autosampler for 12 h ([1]; spiked concentration 100 ng/mL): 90.7 ± 0.4 ng/mL; Measured concentration, Room temperature for 6 h ([1]; spiked concentration 100 ng/mL): 110.9 ± 1.2 ng/mL; Measured concentration, Three freeze-thaw cycles ([1]; spiked concentration 100 ng/mL): 112.6 ± 0.5 ng/mL; Measured concentration, -80°C for 14 days [1, 3]: 1930.7 ± 22.5 ng/mL; Measured concentration, Autosampler for 12 h [1, 3]: 1960.1 ± 38.5 ng/mL; Measured concentration, Room temperature for 6 h [1, 3]: 2214.4 ± 17.9 ng/mL; Measured concentration, Three freeze-thaw cycles [1, 3]: 2225.7 ± 9.3 ng/mL
O=c1cc(-c2ccc(O)c(O)c2)oc2cc(O)cc(O)c12 [Luteolin]					25100 ± 2230	2080 ± 307	0.5	8.89 ± 4.01	24200 ± 2110	2.78e-05	195.1 ± 2.6	181.7 ± 0.8	193.5 ± 3.3	223.7 ± 1.5		Measured concentration, -80°C for 14 days ([1]; spiked concentration 20 ng/mL): 17.4 ± 0.3 ng/mL; Measured concentration, Autosampler for 12 h ([1]; spiked concentration 20 ng/mL): 21.3 ± 0.4 ng/mL; Measured concentration, Room temperature for 6 h ([1]; spiked concentration 20 ng/mL): 20.3 ± 0.3 ng/mL; Measured concentration, Three freeze-thaw cycles ([1]; spiked concentration 20 ng/mL): 23.2 ± 0.7 ng/mL; Measured concentration, -80°C for 14 days [1, 4]: 4195.2 ± 15.1 ng/mL; Measured concentration, Autosampler for 12 h [1, 4]: 3656.3 ± 33.7 ng/mL; Measured concentration, Room temperature for 6 h [1, 4]: 4419.0 ± 9.2 ng/mL; Measured concentration, Three freeze-thaw cycles [1, 4]: 4475.1 ± 11.8 ng/mL
COc1ccc(-c2cc(=O)c3c(O)cc(O[C@@H]4O[C@H](CO)[C@@H](O)[C@H](O)[C@H]4O)cc3o2)cc1 [Tilianin]	10.2 ± 0.2	9.3 ± 0.1	9.9 ± 0.3	11.3 ± 0.2							188.6 ± 0.9	179.0 ± 1.2	226.4 ± 0.2	209.6 ± 0.3	detected only at the first few blood sampling points	Measured concentration, -80°C for 14 days ([1]; spiked concentration 1 ng/mL): 0.9 ± 0.1 ng/mL; Measured concentration, Autosampler for 12 h ([1]; spiked concentration 1 ng/mL): 0.9 ± 0.1 ng/mL; Measured concentration, Room temperature for 6 h ([1]; spiked concentration 1 ng/mL): 1.1 ± 0.1 ng/mL; Measured concentration, Three freeze-thaw cycles ([1]; spiked concentration 1 ng/mL): 1.0 ± 0.1 ng/mL
Isoquercitrin															detected only at the first few blood sampling points	Measured concentration, -80°C for 14 days ([1]; spiked concentration 5 ng/mL): 4.5 ± 0.1 ng/mL; Measured concentration, Autosampler for 12 h ([1]; spiked concentration 5 ng/mL): 4.0 ± 0.2 ng/mL; Measured concentration, Room temperature for 6 h ([1]; spiked concentration 5 ng/mL): 4.7 ± 0.2 ng/mL; Measured concentration, Three freeze-thaw cycles ([1]; spiked concentration 5 ng/mL): 5.6 ± 0.1 ng/mL; Measured concentration, -80°C for 14 days ([1]; spiked concentration 50 ng/mL): 50.7 ± 2.1 ng/mL; Measured concentration, Autosampler for 12 h ([1]; spiked concentration 50 ng/mL): 41.6 ± 0.5 ng/mL; Measured concentration, Room temperature for 6 h ([1]; spiked concentration 50 ng/mL): 49.0 ± 1.2 ng/mL; Measured concentration, Three freeze-thaw cycles ([1]; spiked concentration 50 ng/mL): 54.5 ± 0.8 ng/mL; Measured concentration, -80°C for 14 days [1, 5]: 1006.3 ± 30.5 ng/mL; Measured concentration, Three freeze-thaw cycles [1, 5]: 1110.5 ± 21.8 ng/mL
